# Test results published in patent US12264173B2 (GILEAD SCIENCES, INC., priority 2020, dated 2025).
# Read-outs that look alike come from different tables or passages of the source.
# What was measured:
# DENV2 replicon = experiment: DENV-2 Huh-7 Rep EC50 (replicon luminescence); type: cell-based; conditions: Dengue virus, DENV2, Huh-7, 48 h
# Outline: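 Huh-7 cells carrying a DENV2 replicon, 5,000 cells/well, were incubated with dosed compounds for 48 h at 37° C. EnduRen live-cell substrate was added 1.5 h before luminescence reading. EC50 came from dose-response against DMSO-only wells.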
# HRV16 = HRV16 HeLa EC50 (cytopathic effect in H1-HeLa cells); type: cell-based; conditions: read-out: HRV16 HeLa EC50
# Outline: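 H1-HeLa cells seeded one day before, given 3-fold serial compound dilutions in triplicate just prior to infection with pre-titrated virus. Incubated 96 h at 33 °C/5% CO2; protection from cytopathic effect read as viability by CellTiter-Glo luminescence, normalised to infected untreated (0%) and uninfected (100%) controls.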
# RSV A2 = experiment: RSV NHBE EC50 (RSV A2 antiviral assay in NHBE cells); type: cell-based; conditions: human respiratory syncytial virus, NHBE, read-out: RSV NHBE EC50
# Outline: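 Primary bronchial epithelial cells attach overnight, receive 3-fold serial compound dilutions, and are infected with RSV A2 at 1×10^4.5 tissue culture infectious doses/mL. Protection from virus-induced cell death is scored by luminescent viability assay after 4 days.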
# [1] = system: Dengue 2, New Guinea strain (NGC); experiment: DENV moDC EC50 (qPCR in human monocyte-derived dendritic cells); type: cell-based; conditions: Dengue virus, Dendritic cell; Table 3; human moDCs, 48 hours
# Protocol: Human monocyte-derived dendritic cells (moDCs) were derived from CD14+ monocytes (AllCells) cultured in Human Mo-DC Differentiation medium containing GM-CSF and IL-4 (Miltenyi Biotec). On day 7, moDCs were harvested by mechanical disruption, washed and suspended in serum-free RPMI. moDCs were infected with Vero-derived Dengue 2, New Guinea strain (NGC) at a MOI=0.1 for two hours in serum-free RPMI with gentle agitation at 37° C. Cells were washed and resuspended in 10% serum-containing RPMI (Gibco, supplemented with sodium pyruvate, NEAA, Penicillin-Streptomycin). […] were plated in triplicate in 96-well plates with compounds dispensed at graded doses (Hewlett-Packard D300 Digital Dispenser). All wells were normalized to 0.25% DMSO. At 48 hours, cells were washed with 1×PBS and all supernatants removed. Total RNA was extracted using RNEasy 96 plates (Qiagen) and used to generate first-strand cDNA using XLT cDNA 5× Supermix (QuantaBio). cDNA was used as a template in a Taqman qPCR duplex reaction specific to DENV2 viral and GAPDH gene expression. EC50 values were determined using Prism Graphpad software, with normalization to a positive control and no compound negative control wells.
# RSV strain A2 = experiment: microbe, parasite or virus in culture; type: cell-based; conditions: human respiratory syncytial virus, HEp-2, 96 h, Table 3; HEp-2 cells, RSV A2, 4 days; read-out: RSV HEp-2 EC50
# Outline: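 Cytopathic-effect protection assay: HEp-2 cells (50,000/mL) infected with pre-titered RSV A2 onto 3-fold serial compound dilutions, incubated 4 days at 37° C. Cell viability read by CellTiter-Glo luminescence; percent inhibition derived against 0% and 100% virus-inhibition controls.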
# HCV Rep 2A = HCV Rep 2A EC50 (replicon luciferase); type: cell-based; conditions: Hepatitis C virus
# Protocol: (§1) Compounds were serially diluted in ten steps of 1:3 dilutions in 384-well plates. All serial dilutions were performed in four replicates per compound within the same 384-well plate. […] To each well of a black polystyrene 384-well plate (Greiner Bio-one, Monroe, NC), 90 μL of cell culture medium (without Geneticin) containing 2000 suspended HCV replicon cells was added with a Biotek μFlow workstation. For compound transfer into cell culture plates, 0.4 μL of compound solution from the compound serial dilution plate was transferred to the cell culture plate on a Biomek FX workstation. The DMSO concentration in the final assay wells was 0.44%. The plates were incubated for 3 days at 37° C. with 5% CO2 and 85% humidity. The HCV replicon assay was a multiplex assay, able to assess both cytotoxicity and antireplicon activity from the same well. The CC50 assay was performed first. The media in the 384-well cell culture plate was aspirated, and the wells were washed four times with 100 μL of PBS each, using a Biotek ELX405 plate washer. A volume of 50 μL of a solution containing 400 nM calcein AM (Anaspec, Fremont, CA) in 1×PBS was added to each well of the plate with a Biotek μFlow workstation. The plate was incubated for 30 min at room temperature before the fluorescence signal (excitation 490 nm, emission 520 nm) was measured with a Perkin-Elmer Envision plate reader. The EC50 assay was performed in the same wells as the CC50 assay. The calcein-PBS solution in the 384-well cell culture plate was aspirated with a Biotek ELX405 plate washer. A volume of 20 μL of Dual-Glo luciferase buffer (Promega, Madison, WI) was added to each well of the plate with a Biotek μFlow Workstation. The plate was incubated for 10 min at room temperature. A volume of 20 μL of a solution containing a 1:100 mixture of Dual-Glo Stop & Glo substrate (Promega, Madison, WI) and Dual-Glo Stop & Glo buffer (Promega, Madison, WI) was added to each well of the plate with a Biotek μFlow Workstation. The plate was then incubated at room temperature for 10 min before the luminescence signal was measured with a Perkin-Elmer Envision Plate Reader.
# HCV Rep 1B = HCV Rep 1B EC50 (replicon luciferase); type: cell-based; conditions: Hepatitis C virus
# Protocol: as §1
# POLRMT [2] = target: T1, POLRMT (Homo sapiens, UniProt O00411); experiment: Inhibition of human mitochondrial RNA polymerase (POLRMT); type: biochemical; conditions: nucleotide triphosphate
# T1 sequence (O00411 42-1230): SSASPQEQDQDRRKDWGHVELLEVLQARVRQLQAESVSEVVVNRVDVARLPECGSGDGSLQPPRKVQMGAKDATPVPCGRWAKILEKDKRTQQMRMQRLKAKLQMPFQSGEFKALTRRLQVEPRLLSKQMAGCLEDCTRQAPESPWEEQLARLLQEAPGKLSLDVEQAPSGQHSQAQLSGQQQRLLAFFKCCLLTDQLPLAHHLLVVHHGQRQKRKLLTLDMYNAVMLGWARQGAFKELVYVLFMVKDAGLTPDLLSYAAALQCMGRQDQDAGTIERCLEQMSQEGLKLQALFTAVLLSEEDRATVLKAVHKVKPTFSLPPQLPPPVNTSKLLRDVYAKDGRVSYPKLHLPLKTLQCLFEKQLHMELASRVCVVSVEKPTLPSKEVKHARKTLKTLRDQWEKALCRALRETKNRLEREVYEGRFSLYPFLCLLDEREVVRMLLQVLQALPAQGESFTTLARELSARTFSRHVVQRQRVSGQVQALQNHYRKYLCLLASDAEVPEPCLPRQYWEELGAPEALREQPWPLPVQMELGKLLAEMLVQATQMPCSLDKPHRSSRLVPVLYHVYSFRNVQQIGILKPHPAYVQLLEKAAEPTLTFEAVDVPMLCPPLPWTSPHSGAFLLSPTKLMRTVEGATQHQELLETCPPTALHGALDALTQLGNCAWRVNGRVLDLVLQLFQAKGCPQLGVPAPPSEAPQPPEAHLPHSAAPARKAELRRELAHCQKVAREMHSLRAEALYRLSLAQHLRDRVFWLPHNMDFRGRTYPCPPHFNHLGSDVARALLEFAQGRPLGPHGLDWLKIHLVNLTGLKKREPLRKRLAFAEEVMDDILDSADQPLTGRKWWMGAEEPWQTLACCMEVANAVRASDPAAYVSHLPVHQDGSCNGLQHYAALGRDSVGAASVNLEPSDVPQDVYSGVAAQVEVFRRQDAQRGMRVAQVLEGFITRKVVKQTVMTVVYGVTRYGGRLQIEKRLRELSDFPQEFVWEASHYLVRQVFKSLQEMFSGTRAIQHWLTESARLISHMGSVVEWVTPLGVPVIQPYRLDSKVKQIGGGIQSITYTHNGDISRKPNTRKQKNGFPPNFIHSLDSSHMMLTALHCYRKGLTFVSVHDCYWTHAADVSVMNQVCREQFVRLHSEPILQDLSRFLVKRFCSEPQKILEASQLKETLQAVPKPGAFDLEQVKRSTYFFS
# Protocol: All reaction mixtures contained 50 mM Tris-HCl buffer (pH 8.0), 0.2 mg/ml BSA, 2 mM DTT, 0.05 mg/ml activated fish sperm DNA, 10 mM MgCl2, 1.3 μCi [α-^33P]dTTP (3,000 Ci/mmol), and 2 μMeach of dATP, dGTP, and TTP. The optimal enzyme concentrations were chosen to be in the linear range of enzyme concentration ([E]) versus activity, and the reaction time was selected to ensure that 10% of the substrate was consumed. All reactions were run at 37° C. […] The reactions were heated to 32° C. and initiated by adding 2.5 μM each of the four natural NTPs and 1.5 μCi of [^33P]GTP. After incubation for 30 min at 32° C., the reactions were spotted on DE81 paper before being processed for quantification.
# DENV2 NS5 = DENV2 NS5 (Dengue virus type 2, UniProt P14340); experiment: DENV Pol IC50 (DENV2-NS5 polymerase assay); type: biochemical; conditions: nucleotide triphosphate
# Protocol: A 244 nucleotide secondary structureless heteropolymeric RNA (sshRNA) with sequence 5′-(UCAG)20(UCCAAG)14(UCAG)20-3′ (SEQ ID NO: 1) is used as the template with 5′-CUG-3′ primer in the DENV2-NS5 polymerase assay. Six two-fold dilutions of compounds starting from 200 nM and no inhibitor control are plated in 96-well plates. 100 nM DENV2 NS5 is preincubated for 5 minutes at room temperature in a reaction mixture containing 40 mM Tris-HCl (pH 7.5), 10 mM NaCl, 3 mM DTT, 0.2 unit/μL RNasin Plus RNase Inhibitor, 200 ng/μL sshRNA, 20 μM CUG and 2 mM MgCl2. Enzyme mix is added to compound dilutions and reactions initiated by the addition of a mixture containing 20 μM of three natural NTP plus 2 μM of analog:base matched competing natural NTP containing 1:100 α-33P-NTP. After 90 minutes at 30° C., 5 μL of the reaction mixtures are spotted on DE81 anion exchange paper. Filter papers are washed three times with Na2HPO4 (125 mM, pH 9) for 5 minutes, rinsed with water and ethanol, then air-dried and exposed to phosphorimager. Synthesized RNA is quantified using Typhoon Trio Imager and Image Quant TL Software and reaction rates are calculated by linear regression using GraphPad Prism 5.0. IC50 values are calculated in Prism by non-linear regression analysis using the dose-response (variable slope) equation (four-parameter logistic equation): Y=Bottom+(Top-Bottom)/(1+10^((Log IC50−X)*HillSlope)).
# POLRMT [3] = target: T1, POLRMT; experiment: Single nucleotide incorporation by human mitochondrial RNA polymerase (POLRMT); type: biochemical; conditions: nucleotide triphosphate
# Protocol: A mixture of MTCN buffer (50 mM MES, 25 mM Tris-HCl, 25 mM CAPS, and 50 mM NaCl, pH 7.5), 200 nM 5′^32 P-R12/D18, 10 mM MgCl2, 1 mM DTT, and 376 nM POLRMT was preincubated at 30° C. for 1 min. The reaction was started by addition of 500 μM (final) natural NTP or NTP analogs. At selected time points, the reaction mixture was removed and quenched with gel loading buffer containing 100 mM EDTA, 80% formamide, and bromophenol blue, and heated at 65° C. for 5 min. The samples were run on a 20% polyacrylamide gel (8 M urea), and the product formation was quantified using Typhoon Trio Imager and Image Quant TL Software (GE Healthcare, Piscataway, NJ). The rate of single nucleotide incorporation by mt RNA pol was calculated by fitting the product formation using the single exponential equation: [1R13]=A(1−e^−kt), where [1R13] represents the amount (in nM) of the elongated product formed, t represents the reaction time, k represents the observed rate, and A represents the amplitude of the exponential.
# [4] = system: Dengue serotype 2 New Guinea C (NGC) strain; experiment: DENV-2 Huh-7 EC50 (qPCR in Huh7 cells); type: cell-based; conditions: Dengue virus, Huh-7; Table 5 comparative activity, 2',3'-OH vs -OC(O)iPr; read-out: DENV Huh7 EC50
# Protocol: Huh7 (Human hepatocarcinoma 7) cells were maintained in 10% FCS-containing DMEM complete media. On the day of the assay, cells were trypsinized (0.1% Trypsin-EDTA), washed and infected for 2 hours in serum-free DMEM with Dengue serotype 2 New Guinea C (NGC) strain at MOI=0.1 with gentle agitation at 37° C. After 2 hours, cells were washed with serum-free media and suspended in 10% FCS-containing DMEM (Gibco, supplemented with sodium pyruvate, NEAA, Penicillin-Streptomycin). 10^5 cells were plated in triplicate in 96-well plates with compounds dispensed at graded doses (Hewlett-Packard D300 Digital Dispenser). All wells were normalized to 0.25% DMSO. At 48 hours, cells were washed with 1×PBS and all supernatants removed. Total RNA was extracted using RNEasy 96 plates (Qiagen) and used to generate first-strand cDNA using XLT cDNA 5× Supermix (QuantaBio). cDNA was used as a template in a Taqman qPCR duplex reaction specific to DENV2 viral and GAPDH gene expression. EC50 values were determined using Prism Graphpad software, with normalization to a positive control and no compound negative control wells.
# [5] = 96 h, Table 3, NHBE cells, RSV A2, 4 days
smiles,measurement,setting,value
"CCC(=O)O[C@H]1[C@H](c2ccc3c(N)ncnn23)O[C@](C#N)(COP(=O)(N[C@@H](C)C(=O)OCC2CCC2)N[C@@H](C)C(=O)OCC2CCC2)[C@H]1OC(=O)CC [Example 125, ((2R,3S,4R,5S)-5-(4-aminopyrrolo[2,1-f][1,2,4]triazin-7-yl)-2-cyano-3,4-dipropionatetetrahydrofuran-2-yl)methyl bis-cyclobutylmethyl L-alaninate phosphate]",EC50,"DENV2 replicon; read-out: DENV-2 REP Huh7 EC50, Table 3, Huh-7 DENV2 replicon cells, 48 hours",48700 nM
same,EC50,"HRV16; 96 h, Table 3, H1-HeLa cells, 96 h",2030 nM
same,EC50,RSV A2; [5],79 nM
same,EC50,[1],20700 nM
same,EC50,RSV strain A2,700 nM
"COC(=O)[C@H](C)N[P@](=O)(OC[C@@]1(C#N)O[C@@H](c2ccc3c(/N=C/N4CCN(C)CC4)ncnn23)[C@H](OC(=O)C(C)C)[C@@H]1OC(=O)C(C)C)Oc1ccccc1 [Example 261, (2R,3S,4S,5S)-2-cyano-2-((((S)-(((S)-1-methoxy-1-oxopropan-2-yl)amino)(phenoxy)phosphoryl)oxy)methyl)-5-(4-(((E)-(4-methylpiperazin-1-yl)methylene)amino)pyrrolo[2,1-f][1,2,4]triazin-7-yl)tetrahydrofuran-3,4-diyl bis(2-methylpropanoate)]",EC50,DENV2 replicon; read-out: DENV-2 REP Huh7 EC50,2340 nM
same,EC50,RSV A2; [5],13 nM
same,EC50,"HCV Rep 2A; 72 h, Table 4, replicon cells, 3 days, read-out: HCV Rep 2A EC50",1220 nM
same,EC50,"HCV Rep 1B; 72 h, Table 4, replicon cells, 3 days, read-out: HCV Rep 1B EC50",524 nM
same,EC50,RSV strain A2,42 nM
[N-]=[N+]=N[C@]1(COP(=O)(O)OP(=O)(O)OP(=O)(O)O)O[C@@H](c2ccc3c(N)ncnn23)[C@H](O)[C@@H]1O [—N3],IC50,POLRMT [2],900 nM
same,IC50,DENV2 NS5,140 nM
same,POLRMT SNI %,POLRMT [3],132%
"COC(=O)[C@H](C)N[P@](=O)(OC[C@@]1(C#N)O[C@@H](c2ccc3c(N)ncnn23)[C@H](O)[C@@H]1O)Oc1ccccc1 [Example 52, methyl ((S)-(((2R,3S,4R,5S)-5-(4-aminopyrrolo[2,1-f][1,2,4]triazin-7-yl)-2-cyano-3,4-dihydroxytetrahydrofuran-2-yl)methoxy)(phenoxy)phosphoryl)-L-alaninate]",EC50,"HRV16; HeLa, Table 5 comparative activity, 2',3'-OH vs -OC(O)iPr",1250 nM
same,EC50,"RSV A2; Table 5 comparative activity, 2',3'-OH vs -OC(O)iPr",252 nM
same,EC50,"HCV Rep 2A; Table 5 comparative activity, 2',3'-OH vs -OC(O)iPr, read-out: HCV Rep2A EC50",7460 nM
same,EC50,"HCV Rep 1B; Table 5 comparative activity, 2',3'-OH vs -OC(O)iPr, read-out: HCV Rep1B EC50",3960 nM
same,EC50,[4],5480 nM
